Reference: paper PMC8306634, “Antimicrobial and Antioxidative Activity of Newly Synthesized Peptides Absorbed into Bacterial Cellulose Carrier against Acne vulgaris” (International Journal of Molecular Sciences, 2021)
Converted amounts (≈) assume the structure as drawn. Where a SMILES comes first, the peptide text is derived from it. Side-chain parts run from the residue outwards. The star is where a group is joined. Lauroyl = CCCCCCCCCCCC(=O)*

Key:
[1] = tested on: S. aureus 6538; details: for MBC: 6538, 24 h; for concentration at which reduction of staphylococcal cell number was observed: planktonic S. aureus, Figure 4; for antimicrobial activity against planktonic S. aureus (in words): Figure 4, highest tested 250 mg/L
Procedure: For experimental purposes, the American type culture collection’s strains of S. aureus 6538 and C. acnes 6919 were applied.
The following standard procedure of MBC evaluation according to CLSI (Methods for Determining Bactericidal Activity of Antimicrobial Agents; Approved Guideline, document M26A, Global Laboratory Standards for a Healthier World, https://clsi.org, accessed on 15 December 2020) was performed. The 96-well plates with bacteria and peptide concentrations were performed and incubated as it was described in Section 2 of Material and Methods. Then the M-H agar plates with spots containing staphylococcal culture were incubated at 37 °C for 24 h. Lack of colony presence in the spot after incubation was considered as lack of microorganism growth, while presence of microbial colony in the spot was considered presence of microorganism growth. All experiments were performed in triplicate.

[2] = tested on: S. aureus biofilm; test: Activity against Staphylococcus aureus biofilm (MBEC, TTC); format: cell-based; details: for reduction of staphylococcal biofilm: 24 h, TTC read-out 490 nm, ANOVA with Tukey's test p < 0.05
Procedure: A total of 100µL of S. aureus suspension (10^5 cfu/mL) in TSB) medium was introduced to wells of 96-well plate and incubated at 37 °C/24 h without shaking. Next, whole medium was removed, leaving biofilm-forming organisms attached to the bottom of a 96-well plate. Subsequently, geometric dilutions of peptides in TSB (62.5–250 mg/L) were applied to the wells and left for another 24 h at 37 °C. The culture with no added peptide served as a positive control for microorganism growth, while the well containing the sterile TSB only served as a sterility control for the experiment. After incubation, 5 µL of triphenyl tetrazolium chloride (TTC, Sigma Aldrich, Taufkirchern, Germany) was added to each well and incubated for 5 h at 37 °C. A change of colorless TTC to red formazan confirmed the presence of metabolically active microorganisms. Next, the formazan was dissolved in methanol and its concentration was measured using a Thermo Scientific Multiskan Go spectrometer with a wavelength of 490 nm. In parallel, biofilms in plate wells were agitated using an automated pipette, removed from 96-well plates, and spotted on a stable (M-H) agar plate (Biomaxima, Lublin, Poland) where they were incubated for 48 h. The presence of living colonies on agar indicated the lack of MBEC, while the absence of colonies in the place where spotting was performed confirmed that the particular concentration of peptide can be considered the MBEC.

[3] = tested on: S. aureus; details: 24 h
[4] = tested on: C. acnes; details: 24 h
[5] = DPPH radical scavenging activity; details: 25 °C, absorbance at 522 nm, triplicate
Procedure: The DPPH spectrometric method described by Brand, Williams et al. was applied due to its efficiency on lipophilic and hydrophilic samples [60]. The evaluation of free radical scavenging capacity (FRSC) was based on DPPH (Merck, Darmstadt, Germany) absorbance intensity resulting from its reaction with surfactants. A PG Instruments UV–Vis T60 spectrophotometer (Alab, Warszawa, Poland), interfaced with a computer with a quartz cuvette and of path length 1.0 cm at 25 °C, using a total volume of 3.0 mL, was applied in the range 190–900 nm. As a sample (As) 1.0 mL of P1–P6 aqueous solution (2 mg/mL) and 2.0 mL of ethanolic DPPH solution (5.9·10–2 mg/mL) were mixed and evaluated. As a blank (Ab), 1.0 mL of water, mixed with 2.0 mL of ethanol, was used. Absorbance decrease at 522 nm was measured in 2 min intervals for 6 h. FRSC was calculated as a percentage with the following equation: FRSC (%) = [(Ab – As)/Ab] × 100%. All measurements were performed in triplicate.

[6] = tested on: S. aureus 6538; test: Minimal inhibitory concentration against planktonic Staphylococcus aureus; format: cell-based; details: M-H broth, 24 h/37 °C, tested 0.48-250 mg/L, turbidity 580 nm, triplicate
Procedure: A loop of staphylococcal culture grown on Columbia agar plate (BioMaxima, Poland) was transferred to liquid tryptone soya broth (TSB, BTL) and incubated at 37 °C for 24 h. Next, culture’s optical density of 1 McFarland (3 × 10^8 cfu/mL) was established using a densitometer (Biomerieux, Poland). Subsequently, the suspension was diluted in the Miller-Hinton Broth (M-H, BioMaxima, Poland) to reach the density of 1 × 10^5 cells/mL. Afterwards, serial dilutions of each peptide was performed in M-H Broth in 96-well plate (BioStar, Germany). Next 100 μL of previously-prepared microbial suspension was added to each well. The highest concentration of each peptide tested in this experimental setting was thus 250 mg/L and it dropped twice in each subsequent well of 96-well plate up to 0.48 mg/L. Plates were incubated for 24 h/37 °C in shaker (Lab Companion, JeioTech, Daejeon, Korea). After incubation, the turbidity of bacterial culture was measured using Thermo Scientific Multiskan Go spectrometer (Thermo-Fischer Scientific, Vantaa, Finland) with wavelength of 580 nm. The microbial culture where no peptide was added served as growth control. The sterility control setting was M-H broth with no microorganism added. The tetrazolium salt (TTC) test served as additional analysis of microbial cell number reduction. All experiments were performed in triplicate.

Row | Molecule | MBC [1] [µg/mL] | concentration at which reduction of staphylococcal cell number was observed [1] [mg/L] | reduction of staphylococcal biofilm ([2]; exposure to 125 mg/L) | reduction of staphylococcal biofilm ([2]; exposure to 250 mg/L) | Inhibition Zone [3] [mm] | Inhibition Zone [4] [mm] | MBEC ([2]; 24 h S. aureus biofilm in TSB, peptides 62.5–250 mg/L for 24 h at 37 °C, spotting on M-H agar) | antimicrobial activity against planktonic S. aureus (in words) [1] | time required for the extinction of fifty percent of the DPPH ([5]; peptide 2 mg/mL aqueous (1.0 mL) + 2.0 mL ethanolic DPPH 5.9·10–2 mg/mL) [min] | DPPH radicals inhibited over six hours ([5]; peptide 2 mg/mL, six hours) [%] | MIC [6]
1 | NCCCC[C@H](NC(=O)[C@@H](N)CCCCN)C(=O)NCCCC[C@H](NC(=O)[C@H](CCCCN)NC(=O)[C@@H](N)CCCCN)C(=O)N[C@@H](Cc1c[nH]c2ccccc12)C(=O)N[C@@H](Cc1c[nH]c2ccccc12)C(=O)N[C@@H](Cc1c[nH]c2ccccc12)C(N)=O [Peptide P6, (KK)2-KWWW-NH2] (H-KKK([Lys-Lys])WWW-NH2; N-terminus assumed) | 250 (≈ 205 µM) | 125 | significant reduction | significant reduction | 0 | 0 | – | – | – | – | –
2 | NCCCC[C@H](NC(=O)[C@H](Cc1c[nH]c2ccccc12)NC(=O)[C@H](CCCCN)NC(=O)[C@H](Cc1c[nH]c2ccccc12)NC(=O)[C@H](CCCCNC(=O)[C@H](CCCCN)NC(=O)[C@H](Cc1c[nH]c2ccccc12)NC(=O)[C@H](CCCCN)NC(=O)[C@@H](N)Cc1c[nH]c2ccccc12)NC(=O)[C@H](CCCCN)NC(=O)[C@H](Cc1c[nH]c2ccccc12)NC(=O)[C@H](CCCCN)NC(=O)[C@@H](N)Cc1c[nH]c2ccccc12)C(N)=O [Peptide P2, (WKWK)2-KWKWK-NH2] (H-WKWKK([Lys-Trp-Lys-Trp])WKWK-NH2) | – | – | significant reduction | significant reduction | 0 | 1.6 ± 0.9 | not achieved | – | – | – | –
3 | (WR)2-KWR-NH2 [Peptide P3] | – | – | – | – | – | – | – | recordable antimicrobial activity, however only in the highest concentrations of 250 mg/L | – | – | –
4 | NCCCC[C@H](NC(=O)[C@H](Cc1c[nH]c2ccccc12)NC(=O)[C@@H](N)CCCCN)C(=O)NCCCC[C@H](NC(=O)[C@H](CCCCN)NC(=O)[C@H](Cc1c[nH]c2ccccc12)NC(=O)[C@@H](N)CCCCN)C(=O)N[C@@H](Cc1c[nH]c2ccccc12)C(=O)N[C@@H](Cc1c[nH]c2ccccc12)C(=O)N[C@@H](Cc1c[nH]c2ccccc12)C(N)=O [Peptide P5, (KWK)2-KWWW-NH2] (H-KWKK([Lys-Trp-Lys])WWW-NH2; N-terminus assumed) | 250 (≈ 157 µM) | 125 | – | significant reduction | 1 | 2 | – | – | 124 | – | –
5 | CCCCCCCCCCCC(=O)NCCCC[C@H](NC(=O)CCCCCCCCCCC)C(=O)N[C@@H](CCCCN)C(=O)N[C@@H](CCCCN)C(=O)N[C@@H](CCCCN)C(N)=O [Peptide P4, (C12)2-KKKK-NH2] (Lauroyl-K(Lauroyl)KKK-NH2) | – | 62.5 | significant reduction | significant reduction | 0 | 0 | – | highest anti-staphylococcal activity | – | < 20 | –
6 | (WK)2-KWK-NH2 [Peptide P1] | – | – | – | – | – | – | – | lack of antimicrobial activity | – | – | not observed
